According to patent US9073855B2, “BCL-2 selective apoptosis-inducing agents for the treatment of cancer and immune diseases” (AbbVie Inc., priority 2008, dated 2015):
pEC50, pKi: −log10 of the molar value.

How the values were obtained:
FL5.12/Bcl-2 cells = experiment: FL5.12/Bcl-2 cell viability assay under IL-3 withdrawal (CellTitre Glo); type: cell-based, murine; conditions: Mus musculus, IL-3 withdrawn 48 hrs, then 24 hrs with compound
From the text: FL5.12 is an IL-3 dependent prolymphocytic murine cell line that undergoes apoptosis upon IL-3 withdrawal as a result of the upregulation of pro-apoptotic Bcl-2 proteins such as Bim and Puma. Stable overexpression of anti-apoptotic Bcl-2 protein (FL5.12/Bcl-2) protects against apoptosis induced by IL-3 withdrawal by sequestration of Bim and Puma. […] The ability of compounds to kill FL5.12/Bcl-2 cells upon IL-3 withdrawal is a direct measure of the compounds' ability to inhibit anti-apoptotic Bcl-2 protein function.
Wild type FL5.12/Bcl-2 overexpressing stable transfectants were cultured in RPMI-1640 supplemented with 2 mM L-glutamine, 10% FBS, 1 mM sodium pyruvate, 2 mM HEPES, 1% penicillin/streptomycin (Invitrogen), 57 μM β-ME, and 10% WEHI-3B conditioned medium (source of IL-3) and maintained at 37° C. containing 5% CO2. 1×10^6 cells/ml were washed 1×PBS and resuspended in medium not supplemented with 10% WEHI-3B for 48 hrs prior to cytotoxicity assays. Cells were then treated for an additional 24 hrs in the presence of various concentrations of the indicated compounds. Cell viability was assessed by CellTitre Glo assay (Promega Corp.) according to the manufacturer's recommendations.

GST-Bcl-XL = GST-Bcl-XL (Homo sapiens, UniProt Q07817); experiment: TR-FRET binding assay, GST-Bcl-XL with F-Bak peptide probe; conditions: TR-FRET Binding Affinity, GST-Bcl-XL, F-Bak peptide probe
Sequence of GST-Bcl-XL (Q07817 whole entry): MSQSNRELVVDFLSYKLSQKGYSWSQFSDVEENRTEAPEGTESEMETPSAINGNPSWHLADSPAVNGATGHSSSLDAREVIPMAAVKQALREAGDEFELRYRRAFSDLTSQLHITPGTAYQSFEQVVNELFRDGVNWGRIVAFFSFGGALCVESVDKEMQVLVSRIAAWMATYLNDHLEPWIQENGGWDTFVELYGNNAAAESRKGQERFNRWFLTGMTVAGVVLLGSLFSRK
Procedure, shortened: (§1)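 Ki was derived with Wang's equation for competitive binding of two ligands. The read-out was time-resolved fluorescence after a 3 h room-temperature incubation, using a Tb-labelled antibody donor and the F-Bak peptide acceptor (excitation 340/35 nm). Test compounds entered as DMSO serial dilutions starting at 50 μM, which was the 2× concentration.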

GST-Bcl-2 = GST-Bcl-2 (Homo sapiens, UniProt P10415); experiment: TR-FRET binding assay, GST-Bcl-2 with F-Bak peptide probe; conditions: TR-FRET Binding Affinity
Sequence of GST-Bcl-2 (P10415 whole entry): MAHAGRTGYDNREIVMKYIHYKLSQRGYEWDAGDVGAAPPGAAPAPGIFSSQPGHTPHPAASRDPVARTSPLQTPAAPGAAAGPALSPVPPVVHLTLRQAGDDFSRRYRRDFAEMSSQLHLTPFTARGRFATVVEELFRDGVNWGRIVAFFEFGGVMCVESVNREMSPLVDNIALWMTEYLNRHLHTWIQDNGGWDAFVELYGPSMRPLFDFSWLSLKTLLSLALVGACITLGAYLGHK
Procedure, shortened: as §1

| Compound | pEC50 (FL5.12/Bcl-2 cells) | pKi (GST-Bcl-XL) | pKi (GST-Bcl-2; GST-Bcl-2, F-Bak peptide probe) | pKi (GST-Bcl-2) |
| --- | --- | --- | --- | --- |
| CC1(C)CCC(CN2CCN(c3ccc(C(=O)NS(=O)(=O)c4ccc(NN5CCS(=O)(=O)CC5)c([N+](=O)[O-])c4)c(Oc4ccc5[nH]ccc5c4)c3)CC2)=C(c2ccc(Cl)cc2)C1 [Example 362, 4-(4-{[2-(4-chlorophenyl)-4,4-dimethylcyclohex-1-en-1-yl]methyl}piperazin-1-yl)-N-({4-[(1,1-dioxidothiomorpholin-4-yl)amino]-3-nitrophenyl}sulfonyl)-2-(1H-indol-5-yloxy)benzamide] | 6.77 | 6.54 | 10.09 |  |
| CC1(C)CCC(CN2CCN(c3ccc(C(=O)NS(=O)(=O)c4ccc(OCC5COCCO5)c([N+](=O)[O-])c4)c(Oc4ccc5[nH]ccc5c4)c3)CC2)=C(c2ccc(Cl)cc2)C1 (stereo not drawn) [Example 297, 4-(4-{[2-(4-chlorophenyl)-4,4-dimethylcyclohex-1-en-1-yl]methyl}piperazin-1-yl)-N-{[4-(1,4-dioxan-2-ylmethoxy)-3-nitrophenyl]sulfonyl}-2-(1H-indol-5-yloxy)benzamide] | 7.88 | 6.55 |  |  |
| CC1(C)CCC(CN2CCN(c3ccc(C(=O)NS(=O)(=O)c4ccc(NCC5(N)CCCCC5)c([N+](=O)[O-])c4)c(Oc4ccc5[nH]ccc5c4)c3)CC2)=C(c2ccc(Cl)cc2)C1 [Example 250, N-[(4-{[(1-aminocyclohexyl)methyl]amino}-3-nitrophenyl)sulfonyl]-4-(4-{[2-(4-chlorophenyl)-4,4-dimethylcyclohex-1-en-1-yl]methyl}piperazin-1-yl)-2-(1H-indol-5-yloxy)benzamide] | 7.10 | 6.67 | 9.58 |  |
| CC1(C)CCC(CN2CCN(c3ccc(C(=O)NS(=O)(=O)c4ccc(NCC5CCOCC5)c(C(F)(F)F)c4)c(Oc4ccc5[nH]ccc5c4)c3)CC2)=C(c2ccc(Cl)cc2)C1 [Example 277, 4-(4-{[2-(4-chlorophenyl)-4,4-dimethylcyclohex-1-en-1-yl]methyl}piperazin-1-yl)-2-(1H-indol-5-yloxy)-N-{[4-[(tetrahydro-2H-pyran-4-ylmethyl)amino]-3-(trifluoromethyl)phenyl]sulfonyl}benzamide] | < 6.30 | < 6.18 | 7.53 |  |
| CN(C)CC#Cc1ccc(-c2ccc(Cl)cc2)c(CN2CCN(c3ccc(C(=O)NS(=O)(=O)c4ccc(NCC5CCOCC5)c([N+](=O)[O-])c4)c(Oc4cccc5[nH]ccc45)c3)CC2)c1 [Example 209, 4-[4-({4′-chloro-4-[3-(dimethylamino)prop-1-ynyl]-1,1′-biphenyl-2-yl}methyl)piperazin-1-yl]-2-(1H-indol-4-yloxy)-N-({3-nitro-4-[(tetrahydro-2H-pyran-4-ylmethyl)amino]phenyl}sulfonyl)benzamide] | 6.86 | < 6.18 | 9.57 |  |
| COCCNc1ccc(S(=O)(=O)NC(=O)c2ccc(N3CCN(CC4=C(c5ccc(Cl)cc5)CC(C)(C)CC4)CC3)cc2Oc2ccc3[nH]ccc3c2)cc1S(=O)(=O)C(F)(F)F [Example 315, 4-(4-{[2-(4-chlorophenyl)-4,4-dimethylcyclohex-1-en-1-yl]methyl}piperazin-1-yl)-2-(1H-indol-5-yloxy)-N-({4-[(2-methoxyethyl)amino]-3-[(trifluoromethyl)sulfonyl]phenyl}sulfonyl)benzamide] | < 6.30 | < 6.18 |  |  |
| CC1(C)CCC(CN2CCN(c3ccc(C(=O)NS(=O)(=O)c4ccc(NC[C@H]5CCCOC5)c([N+](=O)[O-])c4)c(Oc4ccc5[nH]ccc5c4)c3)CC2)=C(c2ccc(Cl)cc2)C1 [Example 181, 4-(4-{[2-(4-chlorophenyl)-4,4-dimethylcyclohex-1-en-1-yl]methyl}piperazin-1-yl)-2-(1H-indol-5-yloxy)-N-[(3-nitro-4-{[(3R)-tetrahydro-2H-pyran-3-ylmethyl]amino}phenyl)sulfonyl]benzamide] | 7.47 | < 6.18 |  |  |
| COCCNc1ccc(S(=O)(=O)NC(=O)c2ccc(N3CCN(CC4=C(c5ccc(Cl)cc5)CC(C)(C)CC4)CC3)cc2Oc2ccc3[nH]ccc3c2)cc1[N+](=O)[O-] [Example 179, 4-(4-{[2-(4-chlorophenyl)-4,4-dimethylcyclohex-1-en-1-yl]methyl}piperazin-1-yl)-2-(1H-indol-5-yloxy)-N-({4-[(2-methoxyethyl)amino]-3-nitrophenyl}sulfonyl)benzamide] | 7.63 | < 6.18 |  |  |
| CC1(C)CCC(CN2CCN(c3ccc(C(=O)NS(=O)(=O)c4ccc(NC[C@@H]5CCCOC5)c([N+](=O)[O-])c4)c(Oc4ccc5[nH]ccc5c4)c3)CC2)=C(c2ccc(Cl)cc2)C1 [Example 180, 4-(4-{[2-(4-chlorophenyl)-4,4-dimethylcyclohex-1-en-1-yl]methyl}piperazin-1-yl)-2-(1H-indol-5-yloxy)-N-[(3-nitro-4-{[(3S)-tetrahydro-2H-pyran-3-ylmethyl]amino}phenyl)sulfonyl]benzamide] | 7.69 | < 6.18 |  |  |
| CC1(C)CCC(CN2CCN(c3ccc(C(=O)NS(=O)(=O)c4ccc(NCC5CCOCC5)c(S(=O)(=O)C(F)(F)F)c4)c(Oc4ccc5[nH]ccc5c4)c3)CC2)=C(c2ccc(Cl)cc2)C1 [Example 304, 4-(4-{[2-(4-chlorophenyl)-4,4-dimethylcyclohex-1-en-1-yl]methyl}piperazin-1-yl)-2-(1H-indol-5-yloxy)-N-({4-[(tetrahydro-2H-pyran-4-ylmethyl)amino]-3-[(trifluoromethyl)sulfonyl]phenyl}sulfonyl)benzamide] | 6.38 | < 6.18 |  |  |
| CC1(C)CCC(CN2CCN(c3ccc(C(=O)NS(=O)(=O)c4ccc(N[C@H]5CC[C@H](N6CCOCC6)CC5)c([N+](=O)[O-])c4)c(Oc4ccc5[nH]ccc5c4)c3)CC2)=C(c2ccc(Cl)cc2)C1 [Example 178, Trans-4-(4-{[2-(4-chlorophenyl)-4,4-dimethylcyclohex-1-en-1-yl]methyl}piperazin-1-yl)-2-(1H-indol-5-yloxy)-N-({4-[(4-morpholin-4-ylcyclohexyl)amino]-3-nitrophenyl}sulfonyl)benzamide] | 7.73 | < 6.18 |  |  |
| O=C(NS(=O)(=O)c1ccc(NCCCN2CCOCC2)c([N+](=O)[O-])c1)c1ccc(N2CCN(Cc3ccccc3N3CC4CCC(CC4)C3)CC2)cc1Oc1ccccc1 [Example 477, 4-{4-[2-(3-azabicyclo[3.2.2]non-3-yl)benzyl]piperazin-1-yl}-N-({4-[(3-morpholin-4-ylpropyl)amino]-3-nitrophenyl}sulfonyl)-2-phenoxybenzamide] | < 5.78 |  |  | 8.07 |
| O=C(NS(=O)(=O)c1ccc(NCC2CCOCC2)c([N+](=O)[O-])c1)c1ccc(N2CCN(Cc3ccccc3C3=C[C@H]4C[C@@H]3C3CCCC34)CC2)cc1Oc1ccccc1 (stereo partly drawn) [Example 478, 4-(4-{2-[(4R,7S)-2,3,3a,4,7,7a-hexahydro-1H-4,7-methanoinden-5-yl]benzyl}piperazin-1-yl)-N-({3-nitro-4-[(tetrahydro-2H-pyran-4-ylmethyl)amino]phenyl}sulfonyl)-2-phenoxybenzamide] | < 5.30 |  |  |  |
| O=C(NS(=O)(=O)c1ccc(NCC2CCOCC2)c(S(=O)(=O)C(F)(F)F)c1)c1ccc(N2CCN(Cc3ccccc3N3CC4CCC(CC4)C3)CC2)cc1Oc1ccccc1 [Example 475, 4-{4-[2-(3-azabicyclo[3.2.2]non-3-yl)benzyl]piperazin-1-yl}-2-phenoxy-N-({4-[(tetrahydro-2H-pyran-4-ylmethyl)amino]-3-[(trifluoromethyl)sulfonyl]phenyl}sulfonyl)benzamide] | 6.65 |  |  |  |
| O=C(NS(=O)(=O)c1ccc(NCC2CCOCC2)c([N+](=O)[O-])c1)c1ccc(N2CCN(Cc3ccccc3N3CC4CCC(CC4)C3)CC2)cc1Oc1ccccc1 [Example 474, 4-{4-[2-(3-azabicyclo[3.2.2]non-3-yl)benzyl]piperazin-1-yl}-N-({3-nitro-4-[(tetrahydro-2H-pyran-4-ylmethyl)amino]phenyl}sulfonyl)-2-phenoxybenzamide] | 7.03 |  |  | 8.09 |
| CC1(C)CCC(CN2CCN(c3ccc(C(=O)NS(=O)(=O)c4ccc(NCC5CCCOC5)c([N+](=O)[O-])c4)c(Oc4ccc5[nH]ccc5c4)c3)CC2)=C(c2ccc(Cl)cc2)C1 (stereo not drawn) [Example 261, 4-(4-{[2-(4-chlorophenyl)-4,4-dimethylcyclohex-1-en-1-yl]methyl}piperazin-1-yl)-2-(1H-indol-5-yloxy)-N-({3-nitro-4-[(tetrahydro-2H-pyran-3-ylmethyl)amino]phenyl}sulfonyl)benzamide] | 7.77 | < 6.18 |  |  |
| CC1(C)CCC(CN2CCN(c3ccc(C(=O)NS(=O)(=O)c4ccc(NCCOC(F)(F)F)c([N+](=O)[O-])c4)c(Oc4ccc5[nH]ccc5c4)c3)CC2)=C(c2ccc(Cl)cc2)C1 [Example 300, 4-(4-{[2-(4-chlorophenyl)-4,4-dimethylcyclohex-1-en-1-yl]methyl}piperazin-1-yl)-2-(1H-indol-5-yloxy)-N-[(3-nitro-4-{[2-(trifluoromethoxy)ethyl]amino}phenyl)sulfonyl]benzamide] | 7.21 | < 6.18 |  |  |
